What was measured:
A549 cells = test: MTT cytotoxicity assay, A549; assay type: cell-based; conditions: Homo sapiens, A549 cell line, average of three determinations
Description: (§1) Four human tumor cell lines (A549, H1975, NCI-H460, and MCF-7) and human normal cell line LO2 were selected to evaluate the antiproliferative activity of all target compounds in vitro. Olmutinib was used as a positive control. Results are summarized in Table 1, where the values are the average of at least three independent experiments. […] However, the antiproliferative activities of the compounds that were substituted with the anisidine side chain performed better than the cyano group chain.

H1975 cells = test: MTT cytotoxicity assay, H1975; assay type: cell-based; conditions: Homo sapiens, NCI-H1975, H1975 cell line, average of three determinations
Description: as §1

NCI-H460 cells = test: MTT cytotoxicity assay, NCI-H460; assay type: cell-based; conditions: Homo sapiens, NCI-H460 cell line, average of three determinations
Description: as §1

MCF-7 cells = test: MTT cytotoxicity assay, MCF-7; assay type: cell-based; conditions: Homo sapiens, MCF7, MCF-7 cell line, average of three determinations
Description: as §1

LO2 cells = test: MTT cytotoxicity assay, normal cell line LO2; assay type: cell-based, human; conditions: for IC50: L02, human normal cell line LO2, MTT, average of three determinations; for Selectivity IC50(LO2)/IC50(A549): ratio IC50(LO2)/IC50(A549)
Description: as §1

EGFR^T790M/L858R = EGFR^T790M/L858R (Homo sapiens, UniProt P00533, L858R/T790M); test: Kinase-Glo Luminescent Kinase Assay, EGFR T790M/L858R; assay type: biochemical; conditions: average of three determinations
PI3Kα = PI3Kα (Homo sapiens, UniProt P42336); test: Kinase-Glo Luminescent Kinase Assay, PI3Kα; assay type: biochemical; conditions: average of three determinations
Experimental: Compounds H7 and H10 had excellent antiproliferative activity and were further screened out for kinase inhibition testing. We evaluated compounds H7 and H10 with EGFR^T790M/L858R kinases and PI3Kα kinases.
The specific operation was carried out according to our previous research.

PI3Kα, sequence (P42336 whole entry): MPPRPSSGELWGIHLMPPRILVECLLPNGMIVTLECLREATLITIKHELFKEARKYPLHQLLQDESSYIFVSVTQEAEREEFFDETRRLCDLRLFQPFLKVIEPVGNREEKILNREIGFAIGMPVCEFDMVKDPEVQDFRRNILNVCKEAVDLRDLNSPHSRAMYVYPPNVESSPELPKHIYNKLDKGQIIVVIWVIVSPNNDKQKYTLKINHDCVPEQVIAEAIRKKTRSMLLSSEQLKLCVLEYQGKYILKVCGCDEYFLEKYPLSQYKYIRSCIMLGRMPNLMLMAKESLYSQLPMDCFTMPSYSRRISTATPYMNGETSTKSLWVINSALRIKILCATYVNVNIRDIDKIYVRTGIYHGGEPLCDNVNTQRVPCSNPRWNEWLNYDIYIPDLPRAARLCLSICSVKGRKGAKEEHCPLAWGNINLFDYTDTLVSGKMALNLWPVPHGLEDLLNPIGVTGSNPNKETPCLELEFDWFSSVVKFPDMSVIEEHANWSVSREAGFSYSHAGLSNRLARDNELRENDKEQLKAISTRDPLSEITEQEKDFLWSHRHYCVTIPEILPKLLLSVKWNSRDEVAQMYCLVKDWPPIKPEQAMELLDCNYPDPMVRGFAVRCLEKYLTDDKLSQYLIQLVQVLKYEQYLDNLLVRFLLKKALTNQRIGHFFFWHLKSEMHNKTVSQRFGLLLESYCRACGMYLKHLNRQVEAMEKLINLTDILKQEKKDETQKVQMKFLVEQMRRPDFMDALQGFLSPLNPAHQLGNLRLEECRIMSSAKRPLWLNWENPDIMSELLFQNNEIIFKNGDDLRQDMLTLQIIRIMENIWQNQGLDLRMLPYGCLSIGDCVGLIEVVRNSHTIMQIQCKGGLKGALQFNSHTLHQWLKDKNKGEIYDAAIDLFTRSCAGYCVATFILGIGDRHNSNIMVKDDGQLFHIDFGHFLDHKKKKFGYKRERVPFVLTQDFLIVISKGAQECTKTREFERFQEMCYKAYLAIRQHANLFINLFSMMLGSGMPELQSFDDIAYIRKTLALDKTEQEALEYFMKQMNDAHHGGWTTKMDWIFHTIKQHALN
PI3Kα, sequence (P27986 whole entry partner): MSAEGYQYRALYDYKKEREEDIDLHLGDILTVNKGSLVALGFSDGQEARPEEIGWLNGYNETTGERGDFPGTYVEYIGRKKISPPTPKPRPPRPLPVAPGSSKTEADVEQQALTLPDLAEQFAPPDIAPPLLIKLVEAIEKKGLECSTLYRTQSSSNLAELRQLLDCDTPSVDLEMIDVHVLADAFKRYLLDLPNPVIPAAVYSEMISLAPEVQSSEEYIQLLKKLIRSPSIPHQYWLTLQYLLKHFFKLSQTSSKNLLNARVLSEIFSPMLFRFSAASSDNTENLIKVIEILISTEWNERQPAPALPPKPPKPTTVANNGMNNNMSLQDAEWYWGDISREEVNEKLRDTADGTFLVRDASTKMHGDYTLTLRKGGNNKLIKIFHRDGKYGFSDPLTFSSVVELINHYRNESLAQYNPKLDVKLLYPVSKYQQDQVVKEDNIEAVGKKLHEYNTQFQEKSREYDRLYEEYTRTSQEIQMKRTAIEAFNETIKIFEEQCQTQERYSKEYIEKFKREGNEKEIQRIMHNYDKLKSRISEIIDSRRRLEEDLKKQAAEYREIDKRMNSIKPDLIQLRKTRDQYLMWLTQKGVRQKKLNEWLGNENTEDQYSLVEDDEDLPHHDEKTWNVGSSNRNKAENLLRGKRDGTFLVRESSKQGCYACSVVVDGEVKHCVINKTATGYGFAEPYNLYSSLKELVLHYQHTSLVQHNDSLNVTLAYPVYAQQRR
EGFR^T790M/L858R, sequence (P00533 25-1210 T790M/L858R): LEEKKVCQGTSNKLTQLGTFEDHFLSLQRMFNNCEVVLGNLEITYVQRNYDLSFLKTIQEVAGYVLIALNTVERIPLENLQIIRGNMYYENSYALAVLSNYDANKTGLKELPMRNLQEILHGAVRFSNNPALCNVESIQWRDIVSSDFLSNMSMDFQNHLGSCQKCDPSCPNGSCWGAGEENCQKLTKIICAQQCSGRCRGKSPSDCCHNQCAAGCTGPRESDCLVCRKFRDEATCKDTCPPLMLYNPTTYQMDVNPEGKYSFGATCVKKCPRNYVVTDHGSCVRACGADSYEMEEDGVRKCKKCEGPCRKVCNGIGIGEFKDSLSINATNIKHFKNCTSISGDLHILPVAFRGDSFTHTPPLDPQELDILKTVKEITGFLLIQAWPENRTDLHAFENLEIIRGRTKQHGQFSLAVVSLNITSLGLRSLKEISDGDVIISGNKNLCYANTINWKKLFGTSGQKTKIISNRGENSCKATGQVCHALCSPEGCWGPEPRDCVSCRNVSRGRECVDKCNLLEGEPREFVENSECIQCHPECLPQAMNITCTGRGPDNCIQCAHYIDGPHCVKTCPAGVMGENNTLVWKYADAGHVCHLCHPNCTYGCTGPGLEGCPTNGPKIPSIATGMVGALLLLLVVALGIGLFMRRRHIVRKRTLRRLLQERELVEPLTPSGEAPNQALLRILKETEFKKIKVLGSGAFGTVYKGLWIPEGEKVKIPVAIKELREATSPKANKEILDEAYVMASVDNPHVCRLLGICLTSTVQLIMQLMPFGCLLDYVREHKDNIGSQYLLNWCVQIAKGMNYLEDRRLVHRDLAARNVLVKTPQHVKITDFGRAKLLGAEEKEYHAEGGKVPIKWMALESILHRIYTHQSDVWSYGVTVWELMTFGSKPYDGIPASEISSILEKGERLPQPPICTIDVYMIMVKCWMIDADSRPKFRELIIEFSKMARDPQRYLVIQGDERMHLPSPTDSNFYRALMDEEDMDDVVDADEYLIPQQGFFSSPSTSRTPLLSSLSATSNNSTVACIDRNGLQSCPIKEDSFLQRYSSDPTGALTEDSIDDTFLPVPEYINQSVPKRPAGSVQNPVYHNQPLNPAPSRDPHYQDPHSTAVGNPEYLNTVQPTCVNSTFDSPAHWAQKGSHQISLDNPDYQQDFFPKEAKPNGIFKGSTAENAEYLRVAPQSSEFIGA

SMILES	IC50 (A549 cells) [µM]	IC50 (H1975 cells) [µM]	IC50 (NCI-H460 cells) [µM]	IC50 (MCF-7 cells) [µM]	IC50 (LO2 cells) [µM]	Selectivity IC50(LO2)/IC50(A549) (LO2 cells)	melting point [°C]	IC50 (EGFR^T790M/L858R) [µM]	IC50 (PI3Kα) [µM]	Selectivity (A549 vs LO2) relative to that of olmutinib (LO2 cells; fold of the selectivity of the lead compound olmutinib)
C=CC(=O)Nc1cccc(Oc2cc(-c3cccs3)nc(Nc3cccc(C#N)c3)n2)c1 [Compound H1, N-(3-((2-((3-cyanophenyl)amino)-6-(thiophen-2-yl)pyrimidin-4-yl)oxy)phenyl)acrylamide]	4.43 ± 0.5	9.64 ± 1.01	13.1 ± 1.17	19 ± 1.71	> 100	>22.57	–	–	–	–
C/C=C/C(=O)Nc1cccc(Oc2cc(-c3cccs3)nc(Nc3cccc(C#N)c3)n2)c1 [Compound H2, (E)-N-(3-((2-((3-cyanophenyl)amino)-6-(thiophen-2-yl)pyrimidin-4-yl)oxy)phenyl)but-2-enamide]	10.5 ± 1.17	12.5 ± 1.09	16.4 ± 0.98	14.6 ± 1.19	87.9 ± 1.67	8.38	201.2 to 205.9	–	–	–
CC(C)=CC(=O)Nc1cccc(Oc2cc(-c3cccs3)nc(Nc3cccc(C#N)c3)n2)c1 [Compound H3, N-(3-((2-((3-cyanophenyl)amino)-6-(thiophen-2-yl)pyrimidin-4-yl)oxy)phenyl)-3-methylbut-2-enamide]	27.7 ± 1.24	21.9 ± 1.33	25.8 ± 1.38	35.8 ± 1.64	> 100	>3.61	215.5 to 218.7	–	–	–
CCC/C=C/C(=O)Nc1cccc(Oc2cc(-c3cccs3)nc(Nc3cccc(C#N)c3)n2)c1 [Compound H4, (E)-N-(3-((2-((3-cyanophenyl)amino)-6-(thiophen-2-yl)pyrimidin-4-yl)oxy)phenyl)hex-2-enamide]	37.1 ± 1.19	25.1 ± 1.3	23.4 ± 1.49	27 ± 1.63	> 100	>2.70	209.6 to 211.4	–	–	–
C=C(F)C(=O)Nc1cccc(Oc2cc(-c3cccs3)nc(Nc3cccc(C#N)c3)n2)c1 [Compound H5, N-(3-((2-((3-cyanophenyl)amino)-6-(thiophen-2-yl)pyrimidin-4-yl)oxy)phenyl)-2-fluoroacrylamide]	> 100	> 100	> 100	> 100	> 100	–	222.9 to 226.8	–	–	–
CC(C)/C=C/C(=O)Nc1cccc(Oc2cc(-c3cccs3)nc(Nc3cccc(C#N)c3)n2)c1 [Compound H6, (E)-N-(3-((2-((3-cyanophenyl)amino)-6-(thiophen-2-yl)pyrimidin-4-yl)oxy)phenyl)-4-methylpent-2-enamide]	15.6 ± 0.81	11.9 ± 1.11	18.1 ± 0.71	17.7 ± 1.01	> 100	>6.43	223.1 to 225.4	–	–	–
C/C=C/C(=O)Nc1cccc(Oc2cc(-c3cccs3)nc(Nc3cccc(OC)c3)n2)c1 [Compound H7, (E)-N-(3-((2-((3-methoxyphenyl)amino)-6-(thiophen-2-yl)pyrimidin-4-yl)oxy)phenyl)but-2-enamide]	4.37 ± 0.5	4.59 ± 0.46	13.5 ± 0.52	19.2 ± 1.12	> 100	>22.88	231.7 to 234.3	0.63	> 10	–
COc1cccc(Nc2nc(Oc3cccc(NC(=O)/C=C/C(C)C)c3)cc(-c3cccs3)n2)c1 [Compound H8, (E)-N-(3-((2-((3-methoxyphenyl)amino)-6-(thiophen-2-yl)pyrimidin-4-yl)oxy)phenyl)-4-methylpent-2-enamide]	19 ± 1.34	21.5 ± 1.21	24.1 ± 1.28	49.1 ± 2.13	> 100	>5.26	217.9 to 219.1	–	–	–
C=CC(=O)Nc1cccc(Oc2nc(-c3ccc(CN(C)C)s3)nc(N3CCOCC3)n2)c1 [Compound H9, N-(3-((4-(5-((dimethylamino)methyl)thiophen-2-yl)-6-morpholino-1,3,5-triazin-2-yl)oxy)phenyl)acrylamide]	23.5 ± 1.43	12.8 ± 1.25	28.2 ± 1.78	53.9 ± 1.73	> 100	–	–	–	–	–
C/C=C/C(=O)Nc1cccc(Oc2nc(-c3ccc(CN(C)C)s3)nc(N3CCOCC3)n2)c1 [Compound H10, (E)-N-(3-((4-(5-((dimethylamino)methyl)thiophen-2-yl)-6-morpholino-1,3,5-triazin-2-yl)oxy)phenyl)but-2-enamide]	3.36 ± 1.59	1.16 ± 1.53	10.7 ± 2.02	13.1 ± 1.36	> 100	>29.76	202.4 to 203.7	0.25	8.56	about 5 times
CC(C)=CC(=O)Nc1cccc(Oc2nc(-c3ccc(CN(C)C)s3)nc(N3CCOCC3)n2)c1 [Compound H11, N-(3-((4-(5-((dimethylamino)methyl)thiophen-2-yl)-6-morpholino-1,3,5-triazin-2-yl)oxy)phenyl)-3-methylbut-2-enamide]	13.5 ± 1.13	5.57 ± 1.53	19.7 ± 1.16	25.8 ± 1.31	> 100	>7.39	–	–	–	–
CC(C)/C=C/C(=O)Nc1cccc(Oc2nc(-c3ccc(CN(C)C)s3)nc(N3CCOCC3)n2)c1 [Compound H12, (E)-N-(3-((4-(5-((dimethylamino)methyl)thiophen-2-yl)-6-morpholino-1,3,5-triazin-2-yl)oxy)phenyl)-4-methylpent-2-enamide]	21.9 ± 1.54	13.6 ± 1.94	23.8 ± 2.05	64 ± 1.8	> 100	>4.57	199.7 to 201.3	–	–	–
C=C(C)C(=O)Nc1cccc(Oc2nc(-c3ccc(CN(CC)CC)s3)nc(N3CCOCC3)n2)c1 [Compound H13, N-(3-((4-(5-((diethylamino)methyl)thiophen-2-yl)-6-morpholino-1,3,5-triazin-2-yl)oxy)phenyl)methacrylamide]	23.4 ± 1.89	21.5 ± 1.21	54.5 ± 2.86	32.5 ± 1.73	> 100	–	–	–	–	–
C/C=C/C(=O)Nc1cccc(Oc2nc(-c3ccc(CN(CC)CC)s3)nc(N3CCOCC3)n2)c1 [Compound H14, (E)-N-(3-((4-(5-((diethylamino)methyl)thiophen-2-yl)-6-morpholino-1,3,5-triazin-2-yl)oxy)phenyl)but-2-enamide]	20.6 ± 2.3	17.8 ± 1.34	46.2 ± 1.43	41.6 ± 1.61	> 100	–	–	–	–	–
CCN(CC)Cc1ccc(-c2nc(Oc3cccc(NC(=O)C=C(C)C)c3)nc(N3CCOCC3)n2)s1 [Compound H15, N-(3-((4-(5-((diethylamino)methyl)thiophen-2-yl)-6-morpholino-1,3,5-triazin-2-yl)oxy)phenyl)-3-methylbut-2-enamide]	21.4 ± 1.58	19.5 ± 1.55	62.4 ± 2.94	38.5 ± 1.78	> 100	>4.68	215.2 to 217.1	–	–	–
CCN(CC)Cc1ccc(-c2nc(Oc3cccc(NC(=O)/C=C/C(C)C)c3)nc(N3CCOCC3)n2)s1 [Compound H16, (E)-N-(3-((4-(5-((diethylamino)methyl)thiophen-2-yl)-6-morpholino-1,3,5-triazin-2-yl)oxy)phenyl)-4-methylpent-2-enamide]	36.1 ± 1.61	15.6 ± 2.55	30.3 ± 1.68	51.8 ± 1.27	> 100	>2.77	–	–	–	–

— article PMC8160875 (Molecules, 2021)
